From US20190375708A1 (VenatoRx Pharmaceuticals, Inc., priority 2018, published 2019) come the findings set out here.

The structures appear in SMILES notation.

Data set [1] can be described thus: In vitro cytotoxicity assay (MTT cell viability) in HepG2 cells. Type of data set: cell-based, human. To be noted: human. The method in brief: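 Parental HepG2 cells in EMEM + 10% FBS were exposed to compounds (8 half-log dilutions, 30 μM to 1.0 nM) for 7 days at 37 °C, 5% CO2. MTT was then added for 3-4 h, formazan dissolved in DMSO and absorbance read at 492 nm; CC50 came from 4-parameter fits against vehicle controls.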

Data set [2] has as its system HBV replication in HepAD38 cells. Kind of data set: Anti-HBV replication assay in HepAD38 cells (QPCR of extracellular HBV DNA). The format is cell-based, HBV (genotype D, serotype ayw). To be noted: Hepatitis B virus, 168 h, 7 days incubation, extracellular HBV DNA by QPCR, read-out: Anti-HBV EC50. The method in brief: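 EC50 values reflect 50% reduction of extracellular HBV DNA, measured by QPCR after 7-day treatment of tetracycline-deprived HepAD38 cells with compound […].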

In data set [1], `Cc1c(C(=O)Nc2cccc(C(F)F)c2)c(C)n(C)c1C(=O)C(=O)N[C@]1(C)CC[C@H](O)CC1` [Example 701, N-(3-(difluoromethyl)phenyl)-5-(2-(((1s,4s)-4-hydroxy-1-methylcyclohexyl)amino)-2-oxoacetyl)-1,2,4-trimethyl-1H-pyrrole-3-carboxamide] returned a CC50 at 7 days above 30 µM. For the same compound, in data set [2], the EC50 was below 0.05 µM.

On to `Cc1cc(NC(=O)c2c(C)c(C(=O)C(=O)NC3(C)CC[C@@H](O)[C@@H](O)C3)n(C)c2C)ccc1F` (stereo partly drawn) [Example 702, 5-(2-(((3S,4R)-3,4-dihydroxy-1-methylcyclohexyl)amino)-2-oxoacetyl)-N-(4-fluoro-3-methylphenyl)-1,2,4-trimethyl-1H-pyrrole-3-carboxamide], for which, in data set [1], the 50% cytotoxic concentration (CC50) at 7 days is above 30 µM. Besides, the half-maximal effective concentration (EC50) in data set [2] is below 0.05 µM.

For the compound `Cc1cc(NC(=O)c2c(C)c(C(=O)C(=O)NC3(C)CC[C@H](O)[C@H](O)C3)n(C)c2C)ccc1F` (stereo partly drawn) [Example 703, 5-(2-(((3R,4S)-3,4-dihydroxy-1-methylcyclohexyl)amino)-2-oxoacetyl)-N-(4-fluoro-3-methylphenyl)-1,2,4-trimethyl-1H-pyrrole-3-carboxamide], the CC50 at 7 days in data set [1] is above 30 µM. For the same compound, the EC50 in data set [2] was below 0.05 µM.

In data set [1], `Cc1c(C(=O)Nc2cccc(C(F)F)c2)c(C)n(C)c1C(=O)C(=O)N[C@@H]1CCC[C@@H](O)C1` [Example 704, N-(3-(difluoromethyl)phenyl)-5-(2-(((1R,3R)-3-hydroxycyclohexyl)amino)-2-oxoacetyl)-1,2,4-trimethyl-1H-pyrrole-3-carboxamide] returned a CC50 at 7 days above 30 µM. The 50% effective concentration (EC50) in data set [2] is below 0.05 µM.

In data set [1], `Cc1c(C(=O)Nc2cccc(C(F)F)c2)c(C)n(C)c1C(=O)C(=O)N[C@]1(C)C[C@H](O)C1` [Example 705, N-(3-(difluoromethyl)phenyl)-5-(2-(((1s,3s)-3-hydroxy-1-methylcyclobutyl)amino)-2-oxoacetyl)-1,2,4-trimethyl-1H-pyrrole-3-carboxamide] returned a CC50 at 7 days above 30 µM. Further, the EC50 in data set [2] is below 0.05 µM.

Regarding `Cc1c(C(=O)Nc2ccc(F)c(F)c2)c(C)n(C)c1C(=O)C(=O)N[C@]1(C)CC[C@@H](O)CC1` [Example 706, N-(3,4-difluorophenyl)-5-(2-(((1r,4r)-4-hydroxy-1-methylcyclohexxyl)amino)-2-oxoacetyl)-1,2,4-trimethyl-1H-pyrrole-3-carboxmaide], the CC50 at 7 days in data set [1] is above 30 µM. Besides, the EC50 in data set [2] is below 0.05 µM.

Consider `Cc1cc(NC(=O)c2c(C)c(C(=O)C(=O)NC3(C)CCN(C(=O)Nc4ccc(F)c(F)c4)CC3)n(C)c2C)ccc1F` [Example 707, N-(3,4-difluorophenyl)-4-(2-(4-((4-fluoro-3-methylphenyl)carbamoyl)-1,3,5-trimethyl-1H-pyrrol-2-yl)-2-oxoacetamido)-4-methylpiperidine-1-carboxamide], for which the CC50 at 7 days in data set [1] is 0.5 to 4.99 µM. In addition, the EC50 in data set [2] was below 0.05 µM.

As to `Cc1cc(NC(=O)c2c(C)c(C(=O)C(=O)NC3(C)CCN(C(=O)c4cn(C)nc4C(F)F)CC3)n(C)c2C)ccc1F` [Example 708, 5-(2-((1-(3-(difluoromethyl)-1-methyl-1H-pyrazole-4-carbonyl)-4-methylpiperidin-4-yl)amino)-2-oxoacetyl)-N-(4-fluoro-3-methylphenyl)-1,2,4-trimethyl-1H-pyrrole-3-carboxamide], in data set [1], the CC50 at 7 days was above 30 µM. For the same compound, the concentration for a half-maximal effect (EC50) in data set [2] is below 0.05 µM.

In data set [1], `Cc1cc(NC(=O)c2c(C)c(C(=O)C(=O)NC3(C)CCN(C(=O)c4cn[nH]c4)CC3)n(C)c2C)ccc1F` [Example 709, N-(4-fluoro-3-methylphenyl)-1,2,4-trimethyl-5-(2-((4-methyl-1-(1H-pyrazole-4-carbonyl)piperidin-4-yl)amino)-2-oxoacetyl)-1H-pyrrole-3-carboxamide] yielded a CC50 at 7 days above 30 µM. Moreover, in data set [2], the EC50 was below 0.05 µM.

Take `Cc1cc(NC(=O)c2c(C)c(C(=O)C(=O)N[C@H]3CNC(=O)C34CC4)n(C)c2C)ccc1F` [Example 710, (R)-N-(4-fluoro-3-methylphenyl)-1,2,4-trimethyl-5-(2-oxo-2-((4-oxo-5-azaspiro[2.4]heptan-7-yl)amino)acetyl)-1H-pyrrole-3-carboxamide]: the CC50 at 7 days in data set [1] is above 30 µM. For the same compound, the EC50 in data set [2] is below 0.05 µM.

The compound `Cc1cc(NC(=O)c2c(C)c(C(=O)C(=O)N[C@H]3COC[C@@H]3N3CCOCC3)n(C)c2C)ccc1F` [Example 711, N-(4-fluoro-3-methylphenyl)-1,2,4-trimethyl-5-(2-(((3R,4R)-4-morpholinotetrahydrofuran-3-yl)amino)-2-oxoacetyl)-1H-pyrrole-3-carboxamide] had a CC50 at 7 days in data set [1] above 30 µM. For the same compound, the EC50 in data set [2] was below 0.05 µM.

Regarding `Cc1cc(NC(=O)c2c(C)c(C(=O)C(=O)N[C@@H]3C[C@H](O)[C@@H](O)[C@H]3O)n(C)c2C)ccc1F` [Example 712, N-(4-fluoro-3-methylphenyl)-1,2,4-trimethyl-5-(2-oxo-2-(((1R,2S,3R,4S)-2,3,4-trihydroxycyclopentyl)amino)acetyl)-1H-pyrrole-3-carboxamide], the CC50 at 7 days in data set [1] was above 30 µM. Besides, the EC50 in data set [2] is below 0.05 µM.

The compound `Cc1cc(NC(=O)c2c(C)c(C(=O)C(=O)NC3CC[C@@H](O)[C@@H](O)CC3)n(C)c2C)ccc1F` (stereo partly drawn) [Example 713, 5-(2-(((4R,5S)-4,5-dihydroxycycloheptyl)amino)-2-oxoacetyl)-N-(4-fluoro-3-methylphenyl)-1,2,4-trimethyl-1H-pyrrole-3-carboxamide] gave a CC50 at 7 days in data set [1] above 30 µM. The EC50 in data set [2] was below 0.05 µM.

As for `Cc1cc(NC(=O)c2c(C)c(C(=O)C(=O)NC3COCCOC3)n(C)c2C)ccc1F` [Example 714, 5-(2-((1,4-dioxepan-6-yl)amino)-2-oxoacetyl)-N-(4-fluoro-3-methylphenyl)-1,2,4-trimethyl-1H-pyrrole-3-carboxamide], in data set [1], the CC50 at 7 days is above 30 µM. Further, in data set [2], the EC50 is below 0.05 µM.

In data set [1], `Cc1cc(NC(=O)c2c(C)c(C(=O)C(=O)NC3(C)CCN(c4cnccn4)CC3)n(C)c2C)ccc1F` [Example 715, N-(4-fluoro-3-methylphenyl)-1,2,4-trimethyl-5-(2-((4-methyl-1-(pyrazin-2-yl)piperidin-4-yl)amino)-2-oxoacetyl)-1H-pyrrole-3-carboxamide] showed a cytotoxic concentration (CC50) at 7 days of 5 to 30 µM. The EC50 in data set [2] is below 0.05 µM.

On to `Cc1nc(C(C)(NC(=O)C(=O)c2c(C)c(C(=O)Nc3ccc(F)c(C)c3)c(C)n2C)C2CC2)no1` (stereo not drawn) [Example 716, 5-(2-((1-cyclopropyl-1-(5-methyl-1,2,4-oxadiazol-3-yl)ethyl)amino)-2-oxoacetyl)-N-(4-fluoro-3-methylphenyl)-1,2,4-trimethyl-1H-pyrrole-3-carboxamide], for which, in data set [1], the CC50 at 7 days was above 30 µM. Moreover, in data set [2], the EC50 was below 0.05 µM.

Turning to `Cc1cc(NC(=O)c2c(C)c(C(=O)C(=O)NC3(C)CCN(c4ccncn4)CC3)n(C)c2C)ccc1F` [Example 717], the CC50 at 7 days in data set [1] lay within 5 to 30 µM. Also, the EC50 in data set [2] is below 0.05 µM.

`Cc1cc(NC(=O)c2c(C)c(C(=O)C(=O)NC(C)(C)COC(F)F)n(C)c2C)ccc1F` [Example 718, 5-(2-((1-(difluoromethoxy)-2-methylpropan-2-yl)amino)-2-oxoacetyl)-N-(4-fluoro-3-methylphenyl)-1,2,4-trimethyl-1H-pyrrole-3-carboxamide] had a CC50 at 7 days in data set [1] of 5 to 30 µM. Further, the EC50 in data set [2] was below 0.05 µM.

In turn, `Cc1cc(NC(=O)c2c(C)c(C(=O)C(=O)NC3(C)CCN(C(=O)c4cnn5cccnc45)CC3)n(C)c2C)ccc1F` [Example 719, N-(4-fluoro-3-methylphenyl)-1,2,4-trimethyl-5-(2-((4-methyl-1-(pyrazolo[1,5-a]pyrimidine-3-carbonyl)piperidin-4-yl)amino)-2-oxoacetyl)-1H-pyrrole-3-carboxamide] displayed a half-maximal cytotoxic concentration (CC50) at 7 days in data set [1] above 30 µM. The concentration giving a half-maximal response (EC50) in data set [2] was below 0.05 µM.

Take `Cc1c(C(=O)Nc2cccc(C(F)F)c2)c(C)n(C)c1C(=O)C(=O)N[C@]1(C)C[C@@H](O)C1` [Example 720, N-(3-(difluoromethyl)phenyl)-5-(2-(((1r,3r)-3-hydroxy-1-methylcycloutyl)amino)-2-oxoacetyl)-1,2,4-trimethyl-1H-pyrrole-3-carboxamide]: in data set [1], the CC50 at 7 days was above 30 µM. The EC50 in data set [2] was below 0.05 µM.

In data set [1], `Cc1c(C(=O)Nc2cccc(C(F)F)c2)c(C)n(C)c1C(=O)C(=O)N[C@@H]1CC[C@@H](O)C1` [Example 721, N-(3-(difluoromethyl)phenyl)-5-(2-(((1R,3R)-3-hydroxycyclopentyl)amino)-2-oxoacetyl)-1,2,4-trimethyl-1H-pyrrole-3-carboxamide] registered a CC50 at 7 days above 30 µM. Moreover, the EC50 in data set [2] is below 0.05 µM.

In data set [1], `Cc1cc(NC(=O)c2c(C)c(C(=O)C(=O)N[C@@]3(C)CC[C@@H](O)C3)n(C)c2C)ccc1F` [Example 722, N-(4-fluoro-3-methylphenyl)-5-(2-(((1S,3R)-3-hydroxy-1-methylcyclopentyl)amino)-2-oxoacetyl)-1,2,4-trimethyl-1H-pyrrole-3-carboxamide] gave a CC50 at 7 days above 30 µM. The EC50 in data set [2] is below 0.05 µM.

Consider `Cc1cc(NC(=O)c2c(C)c(C(=O)C(=O)N[C@@]3(C)CC[C@H](O)C3)n(C)c2C)ccc1F` [Example 723, N-(4-fluoro-3-methylphenyl)-5-(2-(((1 S,3S)-3-hydroxy-1-methylcyclopentyl)amino)-2-oxoacetyl)-1,2,4-trimethyl-1H-pyrrole-3-carboxamide], for which, in data set [1], the CC50 at 7 days is above 30 µM. In data set [2], the half-maximal effective concentration (EC50) was below 0.05 µM.

Turning to `Cc1c(C(=O)Nc2ccc(F)cc2)c(C)n(C)c1C(=O)C(=O)N[C@H]1CC[C@@H](O)CC1` [Example 724], the CC50 at 7 days in data set [1] was above 30 µM. The EC50 in data set [2] is below 0.05 µM.
